ChEMBL document CHEMBL1201862, “PubChem BioAssay data set” (2004)
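Cells were grown in 96-well plates and exposed to each compound for 48 hours at five concentrations; endpoints were interpolated linearly between bracketing concentrations, or set to the highest concentration if not reached. Abbreviation: GI50, concentration required for 50% inhibition of growth.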 Active and inactive are the calls of the source. Rule as the data show it: active = GI50 up to about 1.1 µM and inactive = higher.

Tests used:
Assay in all cases: NCI anticancer screen, dose series, 48 h
ACHN = test system: ACHN
CCRF-CEM = test system: CCRF-CEM
COLO 205 = test system: COLO 205
EKVX = test system: EKVX
HCC 2998 = test system: HCC 2998
HCT-116 = test system: HCT-116
HCT-15 = test system: HCT-15
HOP-62 = test system: HOP-62
HOP-92 = test system: HOP-92
LOX IMVI = test system: LOX IMVI
M14 = test system: M14
NCI-H460 = test system: NCI-H460
OVCAR-3 = test system: OVCAR-3
RPMI-8226 = test system: RPMI-8226
SNB-75 = test system: SNB-75
UACC-62 = test system: UACC-62
CAKI-1 = test system: CAKI-1

| SMILES | GI50 (ACHN) | GI50 (CCRF-CEM) | GI50 (COLO 205) | GI50 (EKVX) | GI50 (HCC 2998) | GI50 (HCT-116) | GI50 (HCT-15) [µM] | GI50 (HOP-62) | GI50 (HOP-92) | GI50 (LOX IMVI) | GI50 (M14) | GI50 (NCI-H460) | GI50 (OVCAR-3) | GI50 (RPMI-8226) | GI50 (SNB-75) | GI50 (UACC-62) | GI50 (CAKI-1) |
| --- | --- | --- | --- | --- | --- | --- | --- | --- | --- | --- | --- | --- | --- | --- | --- | --- | --- |
| O=S(=O)(c1ccccc1)N1CCC1c1ccccc1 (centres undefined) | > 100 µM (inactive) | > 100 µM (inactive) | > 100 µM (inactive) | > 100 µM (inactive) | > 100 µM (inactive) | 87.5 µM (inactive) | > 100 | > 100 µM (inactive) | 26.1 µM (inactive) | > 100 µM (inactive) | > 100 µM (inactive) | > 100 µM (inactive) | > 100 µM (inactive) | 43.2 µM (inactive) | 56.4 µM (inactive) | 77.8 µM (inactive) |  |
| CCN1c2ccccc2-c2c3c1cc(C)cc3c1ccccc1[n+]2CC | 2.16 µM (inactive) | 0.621 µM (active) |  |  | 0.811 µM (active) | 0.644 µM (active) | 6.22 | 2.04 µM (inactive) | 1.4 µM (inactive) | 0.386 µM (active) | 1.69 µM (inactive) | 1.23 µM (inactive) | 0.476 µM (active) | 0.466 µM (active) | 0.798 µM (active) | 0.743 µM (active) | 2.26 µM (inactive) |
| C/C(=N\NC(N)=S)C(CN(CC(C)C)CC(C)C)C(=O)Nc1ccc(C)cc1C (centres undefined) | > 100 µM (inactive) | > 100 µM (inactive) | > 100 µM (inactive) | 54.6 µM (inactive) | > 100 µM (inactive) | > 100 µM (inactive) | > 100 | > 100 µM (inactive) | > 100 µM (inactive) | > 100 µM (inactive) | > 100 µM (inactive) | > 100 µM (inactive) | > 100 µM (inactive) |  | 90.6 µM (inactive) | > 100 µM (inactive) | > 100 µM (inactive) |
| COc1cccc2c1C(=O)c1c(O)c3c(c(O)c1C2=O)CC(O)(C(C)=O)CC3OC1CC([N+](C)(C)C)C(O)C(C)O1 (centres undefined) | > 100 µM (inactive) | 48.1 µM (inactive) | 48.1 µM (inactive) | > 100 µM (inactive) | > 100 µM (inactive) | 66.8 µM (inactive) | > 100 | > 100 µM (inactive) | > 100 µM (inactive) | 51.9 µM (inactive) | > 100 µM (inactive) | 36.4 µM (inactive) | > 100 µM (inactive) | 22.5 µM (inactive) | 52.2 µM (inactive) | > 100 µM (inactive) | > 100 µM (inactive) |
| N#C[C-](C#N)[n+]1ccc(Cl)cc1 |  | 9.27 µM (inactive) | 18.5 µM (inactive) | 19 µM (inactive) |  | 14.5 µM (inactive) | 14.4 | 29.2 µM (inactive) | 15.3 µM (inactive) | 11.2 µM (inactive) | 17 µM (inactive) | 22.5 µM (inactive) | 17.7 µM (inactive) | 4.79 µM (inactive) | 17.5 µM (inactive) | 15.9 µM (inactive) | 3.53 µM (inactive) |
| CCCCCCCC(=O)OCC1OC(n2cc(F)c(=O)[nH]c2=O)C(N)C(O)C1O (centres undefined) | > 100 µM (inactive) | > 100 µM (inactive) | > 100 µM (inactive) | > 100 µM (inactive) | > 100 µM (inactive) | > 100 µM (inactive) | > 100 | > 100 µM (inactive) | > 100 µM (inactive) |  | > 100 µM (inactive) | > 100 µM (inactive) | > 100 µM (inactive) | > 100 µM (inactive) | > 100 µM (inactive) | > 100 µM (inactive) | > 100 µM (inactive) |
| COc1cc(C(=C2SCCS2)c2nccc3cc(OC)c(OC)cc23)c([N+](=O)[O-])cc1OC | 29.9 µM (inactive) | 34.1 µM (inactive) | 35.3 µM (inactive) | 54 µM (inactive) | > 100 µM (inactive) | 80.4 µM (inactive) |  | > 100 µM (inactive) | 8.71 µM (inactive) | 80.9 µM (inactive) | 89.9 µM (inactive) |  | 40.9 µM (inactive) | 20.8 µM (inactive) | 45.1 µM (inactive) | 74.3 µM (inactive) |  |
| N#CC(C#N)=Cc1ccc(Oc2ccccc2)cc1 | 21.3 µM (inactive) | 23.8 µM (inactive) | 45.5 µM (inactive) | > 100 µM (inactive) | 97.5 µM (inactive) | 20.6 µM (inactive) | 70.5 | 65.8 µM (inactive) |  | 15.8 µM (inactive) | 22.2 µM (inactive) | 53.2 µM (inactive) | 26.4 µM (inactive) | 18.1 µM (inactive) | 25.1 µM (inactive) | 16.8 µM (inactive) | 43.8 µM (inactive) |
| S=c1nc(N2CCCCC2)ss1 | 27 µM (inactive) | 11.7 µM (inactive) |  | 24.2 µM (inactive) | 16.2 µM (inactive) | 17.7 µM (inactive) | 21.1 | 26.7 µM (inactive) | 17.5 µM (inactive) |  | 20.2 µM (inactive) | 22.3 µM (inactive) |  | 2.75 µM (inactive) | 24.4 µM (inactive) | 17.5 µM (inactive) | 27.7 µM (inactive) |
